From ChEMBL document CHEMBL1154198, “Chemical genetics of Plasmodium falciparum” (Nature, 2010)

Experiments:
Plasmodium falciparum [1] = assay: ST_JUDE: Plasmodium falciparum K1 EC50 (uM) as measured by SYBR green dye; assay type: functional, organism-based
Plasmodium falciparum [2] = assay: ST_JUDE: Plasmodium falciparum 3D7 EC50 (uM) as measured by SYBR green dye; assay type: functional, organism-based

| SMILES | EC50 (Plasmodium falciparum [1]) | EC50 (Plasmodium falciparum [2]) |
| --- | --- | --- |
| Cc1cc(O)nc(Nc2nc(C)c3cccc(C)c3n2)n1 | > 15 µM | > 15 µM |
| O=[N+]([O-])c1ccc(C2Nc3c(O)ccc(Br)c3C3C=CCC32)cc1 (stereo unspecified) | 2.71 µM | 7 µM |
| Cc1cccc(-n2ccnc2SCC(=O)Nc2cc(C(F)(F)F)ccc2Cl)c1 | > 15 µM | > 15 µM |
| CN(C)c1cc[n+](CC(=O)c2ccc(Cl)cc2)cc1 | 1.74 µM | 2.44 µM |
| Cc1ccc2c(c1)c1c(n2CC(O)Cn2cnc(-c3ccccc3)c2-c2ccccc2)CCCC1 (stereo unspecified) | 1.08 µM | 2.02 µM |
| CCC(=O)Oc1cccc2ccc(/C=C/c3cc4c(cc3Cl)OCO4)nc12 | > 15 µM | > 15 µM |
| Cc1ccc2c(c1)c1c(n2CC(O)CNC2CCCC2)CCCC1 (stereo unspecified) | 1.72 µM | 2.9 µM |
| CCOc1ccc(NC(=O)CSc2nncc(O)n2)cc1 | 0.994 µM | 0.734 µM |
| Cc1ccc(C(C)C)c(OCc2nc3ccccc3n2C)c1 | > 15 µM | > 15 µM |
| CCOC(=O)c1c(N)n[nH]c1O | > 15 µM | > 15 µM |
| O=C(Nc1ccccc1Cl)c1cc2ccccc2cc1O | 0.547 µM | > 15 µM |
| Cc1ccc(CN2CCN(C3CCCCC3)C(CCO)C2)cc1C (stereo unspecified) | > 15 µM | > 15 µM |
| OCCNc1nc(Nc2ccc(Br)cc2)nc2ccccc12 | 1.7 µM | 0.829 µM |
| COC(=O)C1C(O)=C2C(=Nc3ccccc3NC2c2ccccc2OC(C)C)CC1C (stereo unspecified) | > 15 µM | > 15 µM |
| COc1cccc(-c2nn(C)c3sc(C(=O)NCCN4CCN(Cc5ccccc5)CC4)cc23)c1 | > 15 µM | > 15 µM |
| CCOc1ccc(NC2=C/C(=N/S(=O)(=O)c3ccc(OC)cc3)c3ccccc3C2=O)cc1 | 0.155 µM | 0.352 µM |
| Cc1cc(C)c2nc(NC(=O)CSc3ccc(F)cc3)sc2c1 | > 15 µM | > 15 µM |
| CCCO/C(O)=C1\C(C)=NC2=C(C(=O)CC(c3ccccc3)C2)C1c1cc(Cl)c(O)c(OC)c1 (stereo unspecified) | 2.88 µM | 3.35 µM |
| CCO/C(O)=C1\C(C)=NC2=C(C(=O)CC(c3ccc(Cl)cc3)C2)C1c1cc(F)ccc1F (stereo unspecified) | > 15 µM | > 15 µM |
| CC(=O)N(C1=C(N2CCCCC2)C(=O)c2ccccc2C1=O)c1ccc(C)cc1 | 4.48 µM | 7.46 µM |
| CCOc1ccc(-c2nonc2NC(=O)C(C)C)cc1OCC | 1.8 µM | 1.39 µM |
| O=C(CCc1ccccc1)N(Cc1cccnc1)c1nc2ccc(F)cc2s1 | > 15 µM | > 15 µM |

| SMILES | EC50 (Plasmodium falciparum [1]) | EC50 (Plasmodium falciparum [2]) |
| --- | --- | --- |
| C[n+]1ccn2c3c(c4cc(C5CCCCC5)ccc42)CCCc31 | 2.34 µM | > 15 µM |
| CCOc1cc(C2C3=C(O)CC(c4ccc(Cl)cc4)CC3=NC(C)=C2C(=O)OC(C)C)ccc1O (stereo unspecified) | 1.62 µM | 1.54 µM |
| COc1ccccc1N1CCN(Cc2cc(Cl)c3cccnc3c2O)CC1 | 2.36 µM | 3.34 µM |
| CCC(=O)NC(c1ccccc1Cl)c1ccc2cccnc2c1O (stereo unspecified) | 2.91 µM | 2.19 µM |
| Cc1cc(C)c2nc(C)cc(Nc3cccc(Cl)c3)c2c1 | 3.83 µM | 0.812 µM |
| OC(CN1CCN(C/C=C/c2ccccc2)CC1)Cn1c2ccccc2c2ccccc21 (stereo unspecified) | 0.65 µM | 1.4 µM |
| CCOC(=O)c1c(CN(C)C)n(-c2ccccc2)c2cc(Br)c(O)cc12 | > 15 µM | 4.14 µM |
| CCOC(=O)N1CCC(NC(=O)Nc2cc(C(F)(F)F)cc(C(F)(F)F)c2)CC1 | 1.29 µM | 0.992 µM |
| CC(=O)NC(c1ccccc1)c1cc(Cl)c2cccnc2c1O (stereo unspecified) | > 15 µM | > 15 µM |
| COc1nc(N=C(N)N)nc2c(C)cccc12 | 3.41 µM | 2.42 µM |
| CC(C)CN1C(=O)c2ccccc2C(C(=O)Nc2ccc(Cl)cn2)C1c1cccs1 (stereo unspecified) | 4.78 µM | 3.44 µM |
| COc1ccc(NC2=C(N3CCOCC3)C(=O)c3ccccc3C2=O)cc1 | 0.286 µM | > 15 µM |
| CSc1cccc(NC(=O)Cn2c(C)c(C=O)c3ccccc32)c1 | 4.29 µM | 4.56 µM |
| O=C(O)c1ccc(CN2C(=O)c3ccccc3C2=O)cc1 | > 15 µM | > 15 µM |
| CCOc1cccc(CNC2CC(C)(C)Cc3c2cnn3-c2ccc(C)cc2)c1O (stereo unspecified) | 0.795 µM | 3.15 µM |
| CC(C)Cc1ccc(S(=O)(=O)N2c3ccccc3CC2C)cc1 (stereo unspecified) | > 15 µM | > 15 µM |
| CCc1nc2sc(C(c3cccc(F)c3)N3CCN(c4ccc(OC)cc4)CC3)c(O)n2n1 (stereo unspecified) | > 15 µM | > 15 µM |
| COc1cc(CNCCCN(C)C)ccc1OCc1ccc(F)cc1Cl | 6.63 µM | 1.59 µM |
| Cc1cc(N2CCN(C)CC2)nc2ccc(NC(=S)NC3CCN(Cc4ccccc4)CC3)cc12 | 5.8 µM | 1.2 µM |
| CC(Cc1ccccc1)NCCCCCCCCCNC(C)Cc1ccccc1 (stereo unspecified) | 1.17 µM | 3.76 µM |
| COC(=O)c1ccc(Nc2nc(NCc3ccccc3)c3ccccc3n2)cc1 | > 15 µM | 1.11 µM |
| C=CCN1C=CC(=Cc2ccc3cc(C)ccc3[n+]2CC)C=C1 | 0.55 µM | 1.4 µM |

| SMILES | EC50 (Plasmodium falciparum [1]) | EC50 (Plasmodium falciparum [2]) |
| --- | --- | --- |
| O=C(c1ccc(Cl)cc1Cl)N1CCCC(C(F)(F)F)C1 (stereo unspecified) | > 15 µM | 1.46 µM |
| Cc1ccc(O)c(NC(=O)c2noc3c2CC(C(C)(C)C)CC3)c1 (stereo unspecified) | 0.483 µM | > 15 µM |
| Cc1ccc2ccc(C(Nc3ccccn3)c3ccccc3Br)c(O)c2n1 (stereo unspecified) | 1.32 µM | 1.49 µM |
| CCCOc1ccc(-c2nonc2NC(=O)c2cccc(C)c2)cc1OCCC | 1.05 µM | > 15 µM |
| CCOC(=O)c1nnn(-c2nonc2N)c1-c1ccc(Cl)cc1 | 3.47 µM | > 15 µM |
| O=C(Nc1cccc(F)c1)c1cc2ccccc2oc1=O | > 15 µM | > 15 µM |
| CCN(CC)c1ccc(/C=N\Nc2ncc(F)c(N3CCOCC3)n2)c(O)c1 | 1.7 µM | 1.53 µM |
| COc1ccc(Cn2c(SCc3cccc(F)c3)nc3nccnc3c2=O)cc1 | > 15 µM | > 15 µM |
| CCOC(=O)c1ccc(NC(=O)C2CCC(C(C)(C)C)CC2)cc1 (stereo unspecified) | > 15 µM | > 15 µM |
| Cc1cc(C)c2ccc(N)nc2c1O | 4.81 µM | 3.86 µM |
| O=C1CC(c2ccc([N+](=O)[O-])cc2)C2=C(CC(c3cccs3)CC2=O)N1 (stereo unspecified) | 2.74 µM | 4.89 µM |
| CCCCOc1ccc(S(=O)(=O)Nc2ccc(Nc3nc(C)cc(N(C)C)n3)cc2)cc1 | > 15 µM | 1.66 µM |
| Cc1ccc(C)c(NC(=O)c2c(-c3c(Cl)cccc3Cl)noc2C)c1 | 4.36 µM | 0.537 µM |
| COc1ccc(OC)c(NC(=O)CSc2nc(-c3ccccc3Cl)ns2)c1 | 1.42 µM | 1.25 µM |
| CCN(CC)c1ccc(/C=C/C2=[N+](C)c3ccc(C(=O)OC)cc3C2(C)C)cc1 | > 15 µM | 3.08 µM |
| C#CCOc1ccc(C2C(C#N)=C(N)Oc3cc(O)ccc32)cc1OCC (stereo unspecified) | 10.2 µM | > 15 µM |
| Cc1cc(C)c2c(c1)c(-c1ccccc1)c(-c1ccccc1)n2CC(O)CN1CCN(CCO)CC1 (stereo unspecified) | 1.59 µM | 2.16 µM |
| CCc1cccc(NC(=O)C2c3ccccc3C(=O)N(CCOC)C2c2cccs2)c1 (stereo unspecified) | 4.14 µM | 3.81 µM |
| O=C(COc1ccc(Cl)cc1)N1CCN(Cc2cccc([N+](=O)[O-])c2)CC1 | > 15 µM | > 15 µM |
| CC(C)(C)C1CCc2onc(C(=O)Nc3cc(Br)ccc3O)c2C1 (stereo unspecified) | 0.419 µM | 0.726 µM |
| O=C(NCCN1CCC(Cc2ccccc2)CC1)c1cc(-c2cccnc2)nc2ccccc12 | 0.942 µM | 1.13 µM |
| CCCOc1cccc(C2c3c(-c4ccccc4O)n[nH]c3C(=O)N2CCCOCC)c1 (stereo unspecified) | 7.84 µM | > 15 µM |

| SMILES | EC50 (Plasmodium falciparum [1]) | EC50 (Plasmodium falciparum [2]) |
| --- | --- | --- |
| Cc1cccc(C)c1OCC(=O)N(Cc1ccc(C(C)C)cc1)Cc1ccco1 | > 15 µM | 4.79 µM |
| CCCN(CCC)CCCNC(=O)c1cc2c(-c3cccc(OC)c3)nn(C)c2s1 | 7.45 µM | 2.15 µM |
| CC(C)(C)c1ccc(-c2cc(-c3cc(Cl)ccc3O)[nH]n2)cc1 | 1.34 µM | 4.23 µM |
| O=C1C(Nc2cccc(F)c2)=C(N2CCCCC2)C(=O)c2ccccc21 | 0.471 µM | 0.261 µM |
| COc1ccc(C2C(C#N)=C(N)Oc3c2ccc2ccccc32)cc1OC (stereo unspecified) | 8.61 µM | 1.45 µM |
| CCCCC(O)(c1ccc(OC)cc1)C(CN1CCCCC1)c1ccccc1 (stereo unspecified) | 2.73 µM | 4.6 µM |
| O=C(Nc1ccc(Cl)c(Cl)c1)Nc1ccc(Cl)c([N+](=O)[O-])c1 | > 15 µM | > 15 µM |
| Cc1ccc(S(=O)(=O)NCC(c2cccnc2)N2CCN(c3ccccc3F)CC2)cc1 (stereo unspecified) | > 15 µM | > 15 µM |
| Oc1c(CN2CCN(Cc3ccc4cccnc4c3O)CC2)ccc2cccnc12 | 6.32 µM | > 15 µM |
| N#C/C(=C/c1ccc(O)c([N+](=O)[O-])c1)c1nc(-c2ccc(Cl)cc2)cs1 | > 15 µM | > 15 µM |
| Cc1c(Cl)cccc1NC(=O)c1ccccc1[N+](=O)[O-] | > 15 µM | > 15 µM |
| Cc1ccc(OCCCOc2cccc3ccc(C)nc23)c([N+](=O)[O-])c1 | > 15 µM | > 15 µM |
| CCN(CC)c1ccc(C2NC(=O)NC(O)(C(F)(F)F)C2C(=O)c2cccnc2)cc1 (stereo unspecified) | 8.42 µM | 9.06 µM |
| COc1ccc(-c2cc(=O)oc3c(OC)c(OC)ccc23)cc1 | > 15 µM | > 15 µM |
| CCc1ccc(NC(=O)C2c3ccccc3C(=O)N(C3CCCC3)C2c2cccs2)cc1 (stereo unspecified) | 1.87 µM | 1.83 µM |
| O=C(NCC1Cc2cccc(-c3ccncc3)c2O1)c1csc2c1CCCC2 (stereo unspecified) | > 15 µM | 8.74 µM |
| Cc1ccc2nc(C)cc(Nc3cccc(C(F)(F)F)c3)c2c1 | 6.01 µM | 0.879 µM |
| CCOC(=O)C(NC(=O)CC)(Nc1ccc(S(=O)(=O)Nc2cc(C)on2)cc1)C(F)(F)F (stereo unspecified) | 8.98 µM | 4.49 µM |
| COc1ccc(C(O)(CCC(C)C)C(CN2CCOCC2)c2ccccc2)cc1 (stereo unspecified) | 3.27 µM | 3.67 µM |
| CCc1cccc2c(C#N)cn(CCOc3ccccc3Cl)c12 | 0.577 µM | 0.516 µM |
| Cc1ccc2nc(-c3ccc(C)c(NC(=O)C(Cl)(Cl)Cl)c3)oc2c1 | 4.17 µM | > 15 µM |
| CC(C)C(=O)N1CCOc2c(cc(-c3csc4ccccc34)cc2OCCc2ccccn2)C1 | 4.48 µM | > 15 µM |
